The target in the experiment is T1, CYP51Ca (recombinant protein CYP51 of C. albicans) (Candida albicans, UniProt P10613).
T1 construct: gene ERG11; commercial recombinant protein from Sangon Biotech (Shanghai)
In words: biolayer interferometry (BLI), protein immobilised on APS sensor. Format: binding. The text has this: biolayer interferometry (BLI), protein immobilised on APS sensor on CYP51Ca (recombinant protein CYP51 of C. albicans) | berberine binds to CYP51Ca in a dose-dependent manner, with a dissociation constant (KD)
A general note: BLI is a label-free optical method that tracks binding on a fibre tip over time.

T1 sequence (P10613 whole entry): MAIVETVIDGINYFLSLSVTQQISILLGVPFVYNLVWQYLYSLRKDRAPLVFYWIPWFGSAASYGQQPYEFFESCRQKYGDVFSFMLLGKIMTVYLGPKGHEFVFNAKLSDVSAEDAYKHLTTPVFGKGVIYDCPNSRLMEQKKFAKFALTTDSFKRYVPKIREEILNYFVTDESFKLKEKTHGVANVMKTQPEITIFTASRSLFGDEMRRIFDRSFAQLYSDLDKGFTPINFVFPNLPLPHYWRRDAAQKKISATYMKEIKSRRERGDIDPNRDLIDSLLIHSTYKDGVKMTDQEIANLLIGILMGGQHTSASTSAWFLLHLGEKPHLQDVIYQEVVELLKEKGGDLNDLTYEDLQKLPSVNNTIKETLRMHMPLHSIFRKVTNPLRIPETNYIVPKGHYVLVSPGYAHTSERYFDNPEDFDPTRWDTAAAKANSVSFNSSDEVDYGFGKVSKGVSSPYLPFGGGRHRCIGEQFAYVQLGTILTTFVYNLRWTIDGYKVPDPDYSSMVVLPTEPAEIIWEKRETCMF

A word on the Kd: it is a measure of binding affinity in units of concentration. As to `COc1ccc2cc3[n+](cc2c1OC)CCc1cc2c(cc1-3)OCO2` [berberine], the equilibrium dissociation constant (Kd) was < 1 pM.

The values are drawn from PMC11547813, “The Antifungal Effects of Berberine and Its Proposed Mechanism of Action Through CYP51 Inhibition, as Predicted by Molecular Docking and Binding Analysis” (Molecules, 2024).
